Test results reported in the PolyMetriX glass transition set.
± gives the standard deviation of the reports.

| glass transition temperature [°C] | Compound |
| --- | --- |
| 71.00 | *CCCCCCOC(=O)OCCCCCCN1C(=O)c2ccc(-c3ccc4c(c3)C(=O)N(*)C4=O)cc2C1=O (repeat unit) |
| 174.00 | *Oc1ccc(C(=O)c2ccccc2)c(-c2cc(Oc3ccc(-c4ccc(*)cc4)cc3)ccc2C(=O)c2ccccc2)c1 (repeat unit) |
| 249.00 | *c1ccc(Oc2ccccc2Oc2ccc(N3C(=O)c4ccc(-c5ccc6c(c5)C(=O)N(*)C6=O)cc4C3=O)cc2C(F)(F)F)c(C(F)(F)F)c1 (repeat unit) |
| 417.00 | *c1ccc(C2(c3ccc(-c4cc(-c5ccccc5)c5cc(-c6ccc7nc(*)cc(-c8ccccc8)c7c6)ccc5n4)cc3)c3ccccc3C(=O)c3ccccc32)cc1 (repeat unit) |
| 306.00 | *c1ccc(-c2cnc3cc(Oc4ccc5nc(*)cnc5c4)ccc3n2)cc1 (repeat unit) |
| 53.00 | *CCCCCCOc1ccc(OC(=O)c2ccc(C(=O)Oc3ccc(O*)cc3)cc2)cc1 (repeat unit) |
| 91.00 | *CC(O)COc1ccc(C(C)(C)c2ccc(O*)cc2)cc1 (repeat unit) |
| 128.00 | *Oc1c(Br)cc(C(C)(C)c2cc(Br)c(OC(=O)c3ccc(OCCCCCCCCCCOc4ccc(C(*)=O)cc4)cc3)c(Br)c2)cc1Br (repeat unit) |
| 72.34 | *c1ccc(NC(=O)CCCCCCCCC(=O)Nc2ccc(S(*)(=O)=O)cc2)cc1 (repeat unit) |
| 40.00 | *CCCCCCCCCCCNC(=O)CCCCCCCCC(=O)N* (repeat unit) |
| 129.00 | *Cc1ccc(C(C)(C)c2ccc(CN3C(=O)c4ccc(-c5ccc6c(c5)C(=O)N(*)C6=O)cc4C3=O)o2)o1 (repeat unit) |
| 62.00 | *CCOCCOc1ccc(N/C=N/c2ccc(O*)cc2)cc1 (repeat unit) |
| 274.00 | *c1ccc(-c2nc3cc(Oc4ccc5nc(-c6ccccc6)c(-c6ccc(-n7c(=O)c8cc9c(=O)n(*)c(=O)c9cc8c7=O)cc6)nc5c4)ccc3nc2-c2ccccc2)cc1 (repeat unit) |
| 215.00 | *c1ccc(Oc2cccc(Oc3ccc(N4C(=O)C5CCC(C6CCC7C(=O)N(*)C(=O)C7C6)CC5C4=O)cc3)c2)cc1 (repeat unit) |
| 162.00 | *Oc1ccc(Oc2ccc(/C(=N/c3ccc(Oc4ccc(/N=C(\c5ccccc5)c5ccc(*)cc5)cc4)cc3)c3ccccc3)cc2)cc1 (repeat unit) |
| 284.00 | *C(=O)Nc1ccc(Sc2ccc(NC(=O)c3ccc4c(c3)C(=O)N(c3ccc(Oc5ccc(N6C(=O)c7ccc(*)cc7C6=O)cc5)cc3)C4=O)cc2)cc1 (repeat unit) |
| 108.00 | *c1ccc(C(C#N)(C(=O)OCCCC)C(*)(C#N)C(=O)OCCCC)cc1 (repeat unit) |

| glass transition temperature [°C] | Compound |
| --- | --- |
| 325.00 | *C(=O)Nc1ccc(Oc2ccc(NC(=O)c3ccc4c(c3)C(=O)N(c3ccc(Oc5ccc(C6(c7ccc(Oc8ccc(N9C(=O)c%10ccc(*)cc%10C9=O)cc8)cc7)NC(=O)c7ccccc76)cc5)cc3)C4=O)cc2)cc1 (repeat unit) |
| 102.00 | *CC(*)c1ccc(C(=O)N(CC)CC)cc1 (repeat unit) |
| 218.20 | *Nc1ccc(-c2ccc(NC(=O)c3cccc(C(*)=O)c3)c(OC)c2)cc1OC (repeat unit) |
| 178.00 | *C(=O)NCCN(CCNC(=O)c1ccc(N2C(=O)c3ccc(*)cc3C2=O)cc1)c1ccc(/C=C/c2ccc([N+](=O)[O-])cc2)cc1 (repeat unit) |
| 58.00 | *c1ccc(C(=O)OCCCCCCCCCCOc2ccc(/C=C3\CC/C(=C\c4ccc(OCCCCCCCCCCOC(=O)c5ccc(-c6nnc(*)o6)cc5)cc4)C3=O)cc2)cc1 (repeat unit) |
| 390.00 | *c1ccc2c(c1)C(=O)N(c1cccc3c(N4C(=O)c5ccc(C(*)(C(F)(F)F)C(F)(F)F)cc5C4=O)cccc13)C2=O (repeat unit) |
| 355.50 ± 19 | *c1ccc2c(c1)C(=O)N(c1ccc(N3C(=O)c4ccc(C(*)(C(F)(F)F)C(F)(F)F)cc4C3=O)cc1)C2=O (repeat unit) |
| 99.00 | *Oc1cc(OCCOC)c(OC(=O)c2ccc(C(*)=O)cc2OCCOCC)cc1OCCOC (repeat unit) |
| 43.00 | *CC(*)(C)C(=O)OCCN(C)c1ccc(N(C)C)cc1 (repeat unit) |
| 52.92 ± 1.3 | *CCCOC(=O)c1ccc(C(=O)O*)cc1 (repeat unit) [Poly(trimethylene terephthalate)] |
| 285.00 | *c1ccc2c(c1)C(=O)N(c1ccc(NC(=O)C(F)(F)C(F)(F)C(F)(F)C(F)(F)C(=O)Nc3ccc(N4C(=O)c5ccc(C(*)(C(F)(F)F)C(F)(F)F)cc5C4=O)cc3)cc1)C2=O (repeat unit) |
| 177.00 | *c1cc(C(c2ccc(OCCN(C)c3ccc(/C=C/C4=CC(=C(/C#N)C(=O)OCCc5ccccc5)/CC(C)(C)C4)cc3)c(N3C(=O)c4ccc(Oc5ccc6c(c5)C(=O)N(*)C6=O)cc4C3=O)c2)(C(F)(F)F)C(F)(F)F)ccc1OCCN(c1ccccc1)c1ccc(/C=C/C2=CC(=C(/C#N)C(=O)OCCc3ccccc3)/CC(C)(C)C2)cc1 (repeat unit) |
| 139.00 | *CCCC(=O)NNC(=O)c1ccc(C(=O)NNC(=O)CCCOc2ccc(O*)c(C)c2)cc1 (repeat unit) |
| -20.00 | *CC(CC)(CC)COC(=O)c1ccc(-c2ccc(-c3ccc(C(=O)O*)cc3)cc2)cc1 (repeat unit) |
| 56.00 | *Oc1ccc(CC(NC(=O)CCc2ccc(OC(=O)CCCCC(*)=O)cc2)C(=O)OCC(C)C)cc1 (repeat unit) |
| -98.00 | *O[Si](C)(C)O[Si](C)(C)O[Si](C)(C)O[Si](C)(C)OC(C)CCCCC(*)C (repeat unit) |
| 275.00 | *Nc1ccccc1-c1ccc(NC(=O)c2ccc(C(*)=O)cc2)cc1 (repeat unit) |

Further lines, the compound ahead of its results:

| Compound | glass transition temperature [°C] |
| --- | --- |
| *CC(*)C(=O)OC(F)(C(F)(F)F)C(F)(F)F (repeat unit) | 10.00 |
| *CC(*)c1ccc([Si](C)(C)O)cc1 (repeat unit) | 147.00 |
| *CC(*)c1c(F)c(F)c(OCC(F)(F)C(F)(F)C(F)(F)C(F)(F)C(F)(F)C(F)(F)C(F)(F)F)c(F)c1F (repeat unit) | 21.00 |
| *Nc1ccc(NC(=O)c2ccc(NC(=O)c3ccc(P(=O)(c4ccccc4)c4ccc(C(*)=O)cc4)cc3)cc2)cc1 (repeat unit) | 243.00 |
| *CC(CC)(CO)CO* (repeat unit) | 331.90 |
| *NC(CCC(=O)OCCCC)C(*)=O (repeat unit) | -15.00 |
| *c1ccc2c(c1)C(=O)N(c1ccc(Oc3ccc(C(=O)c4cccc(C(=O)c5ccc(Oc6ccc(N7C(=O)c8ccc(C(*)(C(F)(F)F)C(F)(F)F)cc8C7=O)cc6)cc5)n4)cc3)cc1)C2=O (repeat unit) | 226.90 |
| *c1ccc2c(c1)C(=O)N(c1cccc(C(=O)Nc3ccc(NC(=O)c4cccc(N5C(=O)c6ccc(C(*)(C(F)(F)F)C(F)(F)F)cc6C5=O)c4)cc3)c1)C2=O (repeat unit) | 311.00 |
| *c1cccc(NC(=O)CCCCCCCCC(=O)Nc2cccc(S(*)(=O)=O)c2)c1 (repeat unit) | 112.00 |
| *CCOc1ccc(C2(c3ccc(OCCO[Si](O*)(c4ccccc4)c4ccccc4)cc3)c3ccccc3-c3ccccc32)cc1 (repeat unit) | 97.00 |
| *Oc1ccc(NC(=O)c2cc(NC(=O)c3ccc(OC(C)=O)cc3)cc(C(=O)Nc3ccc(Oc4ccc(-c5ccc(*)cc5)cc4)cc3)c2)cc1 (repeat unit) | 252.00 |
| *CC#CC#CCOc1ccc(C(=O)OCCN(CCOC(=O)c2ccc(O*)cc2)c2ccc(/N=N/c3ccc(/N=N/c4cc(C)c([N+](=O)[O-])c(C)c4)cc3)cc2)cc1 (repeat unit) | 115.00 |
| *CCCOC(=O)C(C)O* (repeat unit) | -33.00 |
| *C[Si](C)(C)[Si](C)(C)[Si](C)(C)[Si](*)(C)C (repeat unit) | -68.00 |
| *CCOCCOC(=O)O* (repeat unit) | -27.00 |
| *CCCCCC(*)CCCCCC (repeat unit) | -76.00 |
| *CC(*)c1ccc(C)cc1C (repeat unit) [Poly(2,4-dimethyl styrene) ] | 112 ± 0.6 |
| *c1ccc(Oc2cc3ccccc3cc2Oc2ccc(N3C(=O)c4ccc(Oc5ccc6c(c5)C(=O)N(*)C6=O)cc4C3=O)cc2)cc1 (repeat unit) | 275.50 |
| *CCC[Si](*)(c1ccccc1)c1ccc(N(C)C)cc1 (repeat unit) | 52.00 |
| *c1c(C)cc(Cc2cc(C)c(N3C(=O)c4cccc(Oc5ccc(C(C)(C)c6ccc(Oc7cccc8c7C(=O)N(*)C8=O)cc6)cc5)c4C3=O)c(C)c2)cc1C (repeat unit) | 223.00 |
| *c1ccc(C(=O)c2ccc(-n3nc(-c4ccccc4)c4cc(Oc5ccc(C(C)(C)c6ccc(Oc7ccc8c(-c9ccccc9)nn(*)c(=O)c8c7)cc6)cc5)ccc4c3=O)cc2)cc1 (repeat unit) | 195.00 |
| *CC(*)C(=O)OCC(F)(F)C(F)(F)C(F)(F)C(F)(F)C(F)(F)C(F)(F)C(F)(F)F (repeat unit) | -17.00 |
| *c1ncnc(N(CCCCCCCCCCN(*)c2ccccc2)c2ccccc2)n1 (repeat unit) | 55.00 |
| *c1ccc(Oc2ccc(NC(=O)c3ccc4c(c3)C(=O)N(c3ccc(Sc5ccc(N6C(=O)c7ccc(C(=O)Nc8ccc(Oc9ccc(C%10(*)NC(=O)c%11ccccc%11%10)cc9)cc8)cc7C6=O)cc5)cc3)C4=O)cc2)cc1 (repeat unit) | 298.00 |
| *CC(*)CN (repeat unit) | 190.00 |
| *Oc1ccc(-c2ccc(OC(=O)c3ccc(C(*)=O)cc3)cc2)cc1-c1ccccc1 (repeat unit) | 132.00 |
| *CCCCOCC(O)CN(CC(O)CO*)c1ccc(N(C)C)cc1 (repeat unit) | 31.00 |
| *c1ccc(Oc2ccc(N3C(=O)C(c4ccccc4)=C(c4ccc(C5=C(c6ccccc6)C(=O)N(*)C5=O)cc4)C3=O)cc2)cc1 (repeat unit) | 293.00 |
